Data on one compound can be found in publication PMC5618421, “Anti-Inflammatory Effects of Curvularin-Type Metabolites from a Marine-Derived Fungal Strain Penicillium sp. SF-5859 in Lipopolysaccharide-Induced RAW264.7 Macrophages” (Marine Drugs, 2017).

Holding throughout (format): cell-based
One series has as its system IL-6 (Il6). Description: RT-qPCR of IL-6 mRNA in LPS-stimulated RAW264.7 macrophages. As to conditions: pre-treated 3 h, LPS (1 μg/mL) 6 h.
A further series has as its system TNF-α (Tnf). Briefly: RT-qPCR of TNF-α mRNA in LPS-stimulated RAW264.7 macrophages. To be noted: pre-treated 3 h, LPS (1 μg/mL) 6 h. In general terms: In qPCR the cycle at which signal appears reflects the starting amount.
Another series has as its system RAW264.7 macrophages. Description: Cell viability (MTT) cytotoxic assay. As to conditions: RAW264.7 macrophages, MTT. The protocol:
RAW264.7 macrophages were maintained at a density of 5 × 10^5 cells/mL in RPMI1640 medium supplemented with 10% heat-inactivated FBS, penicillin G (100 units/mL), streptomycin ([…]), and L-glutamine (2 mM), and were incubated at 37 °C in a humidified atmosphere containing 5% CO2. For determination of cell viability, cells (1 × 10^5 cells/well in 96-well plates) were incubated with 3-(4,5-dimethylthiazol-2-yl)-2,5-diphenyltetrazolium bromide (MTT) at a final concentration of 0.5 mg/mL for 3 h, and the formazan formed was dissolved in acidic 2-propanol. The optical density was measured at 540 nm with a microplate reader (BioRad, Hercules, CA, USA). The optical density of the formazan formed in control (untreated) cells was considered to represent 100% viability.

Another series deals with IL-1β (Il1b). Briefly: RT-qPCR of IL-1β mRNA in LPS-stimulated RAW264.7 macrophages. To be noted: pre-treated 3 h, LPS (1 μg/mL) 6 h.
The test system of series [1] is PGE2 production in LPS-treated RAW 264.7 macrophages. Description: Inhibition of PGE2 production (PGE2 ELISA kit) in LPS-treated RAW264.7 macrophages. To be noted: Mus musculus, RAW264.7 macrophages pre-treated 3 h with compound, then LPS (1 μg/mL) 24 h. Here is the method:
All isolated compounds (1–9) were evaluated for their anti-inflammatory effects. […] NO is a small molecule which is an intracellular mediator produced in various immune cells. It plays a pivotal role in the physiological and pathological condition of inflammatory symptoms. PGE2 can also regulate the immune and inflammatory responses. In this study, RAW264.7 macrophages were pre-treated for 3 h in the medium containing non-toxic concentrations (Table 2) of each compound (1–9), and then LPS (1 μg/mL) was treated for 24 h. According to the LPS stimulation of RAW264.7 macrophages, production of NO and PGE2 was increased, and the effects of all compounds on the production level of NO and PGE2 were evaluated by the Griess reaction and a PGE2 kit, respectively. […] To evaluate the impact of phenol and resorcinol groups in the curvularin-type metabolites for the anti-inflammatory activity, 5-O-methyl and 5,7,-di-O-methyl derivatives of curvularin (3a and 3b, respectively), as well as 5-O-acetyl and 5,7,-di-O-acetyl derivatives of curvularin (3c and 3d, respectively), were prepared, and the structures of 3a–3d were identified by comparison the ^1H and ^13C-NMR spectroscopic data with those of curvularin (3), and confirmed by their HRESIMS. […] The position of the methoxy group in 3a was confirmed by HMBC correlation between methoxy signal at δH 3.77 (3H, s, 5-OCH3) and δC 161.8 (C-5). The NOESY cross-peaks between acetyl proton ([…]) with H-2, H-4, and H-16 of 3c were used to identify the position of the acetyl group in 3c. […] Further systematic investigations are needed to clarify the structure activity relationship associated with the modification of the aliphatic part of the molecule.
RPMI1640, fetal bovine serum (FBS), and other tissue culture reagents were purchased from Gibco BRL Co. (Grand Island, NY, USA). All other chemicals were obtained from Sigma-Aldrich Co. (St. Louis, MO, USA). Primary antibodies (COX-2: sc-1745; iNOS: sc-650; IκB-α: sc-371; p-IκB-α: sc-8404; p50: sc-7178; p65: sc-8008, Santa Cruz Biotechnology, Dallas, TX, USA, p-ERK: #9101; ERK: #9102; p-JNK: #9251; JNK: #9252S; p-p38: #9211; p38: 9212S, Cell Signaling Technology, Danvers, MA, USA) and secondary antibodies (mouse: ap124p; goat: ap106p; rabbit: ap132p, Millipore, Billerica MA, USA). Enzyme-linked immunosorbent assay (ELISA) kits for PGE2 were purchased from R and D Systems, Inc. (Minneapolis, MN, USA).

In another series the test system is NF-κB (p50 and p65). Briefly: Western blot of nuclear NF-κB (p50 and p65) in LPS-treated RAW264.7 macrophages. As to conditions: pre-treated 3 h, LPS (1 μg/mL) 1 h. Here is the method:
Figure 3 Effects of 8 on NF-κB activation (nuclear-p50 and p65) (a), IκBα phosphorylation and degradation (b), and the DNA binding activity of NF-κB (c) in LPS-treated RAW264.7 macrophages. Cells were pre-treated with the indicated concentrations of 8 for 3 h and stimulated with LPS (1 μg/mL) for 1 h. Western blot analysis (IκBα and p-IκBα in the cytoplasm and NF-κB in the nucleus) was performed as described in the Materials and Methods. Representative blots from three independent experiments are shown. A commercially-available NF-κB ELISA kit (Active Motif) was used to test the nuclear extracts and determine the degree of NF-κB binding. The data shown represent the mean values of three independent experiments. * p < 0.05 compared with the group treated with LPS.
The proteins of iNOS, COX-2, NF-κB, and MAPKs were measured by Western blot analysis. The details of procedures for Western blot analysis were described previously.
The proteins of nuclear NF-κB (p50 and p65) and cytosolic IκBα (p-IκBα and IκBα) were obtained by using cytosolic and nuclear fractions. The details of this procedure have been described previously.
(A western blot detects proteins with antibodies after separation by electrophoresis.)

For another series, the system named is iNOS. Briefly: Western blot of iNOS protein expression in LPS-stimulated RAW264.7 macrophages. To be noted: pre-treated 3 h, LPS 24 h. An excerpt:
Therefore, we further tested whether inhibitory effects of 8 against NO and PGE2 productions are correlated with the protein expression of pro-inflammatory enzymes (i.e., iNOS and COX-2, respectively), which are known to catalyze the production of NO and PGEs in LPS-stimulated cells. […] Upon the stimulation by LPS, macrophages can also trigger the production of pro-inflammatory cytokines such as TNF-α, and ILs. The overproduction of these cytokines contributes to the pathogenesis of inflammatory diseases. Thus, we further evaluated the effects of 8 on the mRNA expression of pro-inflammatory cytokines in the LPS-induced cells. The cells were pre-treated with indicated concentration for 3 h, followed by LPS stimulation (1 μg/mL) for 6 h. The mRNA expression of pro-inflammatory cytokines was determined by RT-qPCR.
Figure 2 Effects of 8 on protein expression levels of iNOS and COX-2 (a), and mRNA expression levels of IL-1β (Il1b) (b), IL-6 (Il6) (c), and TNF-α (Tnf) (d) in RAW264.7 macrophages. The cells were pre-treated for 3 h with the indicated concentrations of 8 and stimulated for 24 h (a), and 6 h (b–d) with LPS (1 μg/mL). The measurement of western blot analysis and RNA quantification for Il1b, Il6, and Tnf expression were performed as described in the Materials and Methods. […]
The proteins of iNOS, COX-2, NF-κB, and MAPKs were measured by Western blot analysis. […]

As for `C[C@H]1CCC/C=C/C(=O)c2c(O)cc(O)cc2CC(=O)O1` [Compound 8, (10E,15S)-10,11-dehydrocurvularin], the “mRNA expression of IL-6” value in the series with IL-6 (Il6) is “markedly suppressed the mRNA expression of IL-1β, IL-6, and TNF-α in a dose-dependent manner”. For the same compound, in the series on TNF-α (Tnf), the “mRNA expression of TNF-α” value was “markedly suppressed the mRNA expression of IL-1β, IL-6, and TNF-α in a dose-dependent manner”. Further, the “Cytotoxicity (the maximum concentration not affecting cell viability)” value in the series on RAW264.7 macrophages came out at 20 µM. Further, in the series on IL-1β (Il1b), the “mRNA expression of IL-1β” value was “markedly suppressed the mRNA expression of IL-1β, IL-6, and TNF-α in a dose-dependent manner”. Also, the IC50 – broadly, the midpoint of a concentration-inhibition curve – in series [1] was found to be 2.7 ± 0.4 µM. Further, in the series with NF-κB (p50 and p65), the “nuclear translocation of p50 and p65” value was “clearly suppressed the nuclear translocation of p50 and p65 in a dose-dependent manner”. In addition, the iNOS protein expression entry in the series on iNOS is “attenuation of the excessive protein expression of iNOS and COX-2 in a dose-dependent manner”.
